In PMC11944037, “Investigating the Mechanism of Action of Ipomoea pes-caprae in the Treatment of Rheumatoid Arthritis Based on Serum Metabolomics and Network Pharmacology” (Marine Drugs, 2025):
Like-named read-outs stand apart in the source and are kept apart here.

How the values were obtained:
[1] = Identification and relative content of absorbed components of IPE in plasma (UPLC-MS); type: in vivo, SD rats; settings: oral IPE 13.5 g/kg, peak area normalization
Source text: A total of 83 male SD rats, SPF grade, six weeks old, body mass (200 ± 10 g), were purchased from Hunan SJA Laboratory Animal Co., Ltd. (Haodan Science and Technology Park, No.99 Changchong Road, Longping High-tech Park, Furong District, Changsha City, China), Animal License No. SCXK (Hunan) 2019-0004. The animal experiments were approved by the Animal Ethics Committee of Guangxi University of Chinese Medicine (Approval No. DW20220220-117). After one week of adaptive feeding, the animals were randomly divided into eight groups of 10 animals according to weight stratification: normal control group (Con), natural bovine type II collagen model group (CII), wind-dampness cold bi-syndrome model group (WCM), wind-dampness heat bi-syndrome model group (WHM), wind-dampness cold bi-syndrome + Ipomoea pes-caprae group (WCM + IPE), wind-dampness heat bi-syndrome + Ipomoea pes-caprae group (WHM + IPE), wind-dampness cold bi-syndrome + Duhuo group (WCM + DH) (Duhuo formula granules), and wind-dampness heat bi-syndrome + Fangji group (WHM + FJ) (Fangji formula granules). Another three rats were randomly selected as the normal administration group (Con + IPE), and the absorbed components in plasma were studied in vivo. The oral dose of IPE was 13.5 g/kg, and the dosing volume was 20 mL/kg. The oral doses of Duhuo formula granules and Fangji formula granules were 9.0 g/kg, with a dosing volume of 20 mL/kg for each. The blank control group and each model group were administered an equal volume of distilled water by oral gavage. The administration was performed once daily for 28 consecutive days.
Rats were fasted for 12 h before administration but not deprived of water, then weighed and administered. A total of 0.2 mL of blood was collected from the orbit at 5 min, 30 min, 45 min, 1 h, 2 h, 4 h, 6 h, 8 h, and 12 h after the end of gavage administration and placed in a centrifuge tube with a preservative anticoagulant (1.5% EDTA aqueous solution, 1.5 mL). The samples were centrifuged at 4 °C for 10 min at 4000 rpm to separate the plasma. The supernatant was transferred to a new centrifuge tube and stored in a refrigerator at −80 °C for the detection of absorbed components in plasma and pharmacokinetics. In addition, after the end of the entire experimental cycle, blood was taken from the abdominal aorta of the rat. The blood samples were kept at room temperature for 2 h, then centrifuged at 4 °C at 3000 rpm for 10 min, and the upper serum was aspirated. The samples were stored at −80 °C in a low-temperature refrigerator for TNF-α, IL-6 detection, and metabolomics detection.
Ultra-high liquid chromatograph (model: ExionLC AC, manufacturer: SCIEX Corporation, USA) and QTOF mass spectrometer (model: X500R, manufacturer: SCIEX Corporation, USA), Waters ACQUITY UPLC HSS T3 C18 column (1.8 μm, 2.1 × 100 mm) was used as the mobile phase for the separation of 0.1% formic acid aqueous solution (A)-acetonitrile (B) as a mobile phase, gradient elution (0~30 min, 5%~95% B); volume flow rate of 0.4 mL/min; injection volume: 3 μL, column temperature: 40 °C. Ion source: dual-spray TurboV, positive and negative ion scanning, TOF MS scanning range of m/z 100~1500, positive/negative ion source voltage of […], ion source temperature: 600 °C, GS1: 55 psi, GS2: 55 psi, air curtain gas pressure: 35 psi, parent ion collision energy: ±10 V, de-cluster voltage (DP): ±80 V, daughter ion collision energy (CE): ±35 V.
Expressed as mean ± standard deviation ( x¯ ± s) and processed by GraphPad Prism 8.4.3 statistical software, statistical comparisons were evaluated by one-way ANOVA, followed by the Student–Newman–Keuls post hoc test. The difference was statistically significant with p < 0.05 and p < 0.01. […]

[2] = Pharmacokinetics of absorbed components of IPE in plasma; type: in vivo, SD rats; settings: component of orally given IPE, n = 6; for MRT last: read-out: MRT0~t
Source text: (Haodan Science and Technology Park, No.99 Changchong Road, Longping High-tech Park, Furong District, Changsha City, China), Animal License No. SCXK (Hunan) 2019-0004. The animal experiments were approved by the Animal Ethics Committee of Guangxi University of Chinese Medicine (Approval No. DW20220220-117). After one week of adaptive feeding, the animals were randomly divided into eight groups of 10 animals according to weight stratification: normal control group (Con), natural bovine type II collagen model group (CII), wind-dampness cold bi-syndrome model group (WCM), wind-dampness heat bi-syndrome model group (WHM), wind-dampness cold bi-syndrome + Ipomoea […] group ([…]), wind-dampness heat bi-syndrome + Ipomoea […] group ([…]), wind-dampness cold bi-syndrome + Duhuo group (WCM + DH) (Duhuo formula granules), and wind-dampness heat bi-syndrome + Fangji group (WHM + FJ) (Fangji formula granules). […] The oral dose of IPE was 13.5 g/kg, and the dosing volume was 20 mL/kg. The oral doses of Duhuo formula granules and Fangji formula granules were 9.0 g/kg, with a dosing volume of 20 mL/kg for each. The blank control group and each model group were administered an equal volume of distilled water by oral gavage. […] The supernatant was transferred to a new centrifuge tube and stored in a refrigerator at -80 °C for the detection of absorbed components in plasma and pharmacokinetics. In addition, after the end of the entire experimental cycle, blood was taken from the abdominal aorta of the rat. The blood samples were kept at room temperature for 2 h, then centrifuged at 4 °C at 3000 rpm for 10 min, and the upper serum was aspirated. The samples were stored at -80 °C in a low-temperature refrigerator for TNF-α, IL-6 detection, and metabolomics detection. In order to further elaborate on the in vivo pharmacokinetic characteristics of IPE, this study selected caffeic acid, protocatechuic acid, and ferulic acid as the research objects to explore their in vivo absorption and metabolism characteristics. In addition, syringic acid was chosen as the internal standard. […] Use A as 0.1% acetic acid aqueous solution (A) acetonitrile (B) as the mobile phase, with gradient elution (0-6 min, 5-20% B; 6-10 min, 20-40% B), a volume flow of 0.4 mL/min, a column temperature of 40 °C, and an injection volume of 3 μL. Ion source: electrospray ion source (ESI), negative ion mode collection, simultaneous measurement by multiple reaction monitoring (MRM) mode.

[3] = system: NF-κB and Akt/mTOR signaling pathways; parameters: method as in PMID 32510258; settings: cited from earlier work
LTB4 = system: LTB4; parameters: method as in PMID 27826169; settings: cited from earlier work
JAK/STAT pathway = settings: modulating CRP, RF, TNF-α, TGF-β levels; cited from earlier work
[4] = system: tyrosine kinases on fibroblast-like synoviocytes (FLS); settings: cited from earlier work
RA-FLS = system: RA-FLS; parameters: method as in PMID 28463788; settings: by blocking phosphorylation of IκB and IκB kinases; cited from earlier work
[5] = male, SD, rat, plasma, po, 13.5 g/kg, Con + IPE group
[6] = male, SD, rat, plasma, po, 13.5 g/kg, Con + IPE group, read-out: Tmax
[7] = male, SD, rat, plasma, po, 13.5 g/kg, WCM + IPE group
[8] = male, SD, rat, plasma, po, 13.5 g/kg, WCM + IPE group, read-out: Tmax
[9] = male, SD, rat, plasma, po, 13.5 g/kg, WHM + IPE group
[10] = male, SD, rat, plasma, po, 13.5 g/kg, WHM + IPE group, read-out: Tmax

Relative Content of absorbed component in plasma ([1]; Con + IPE group (normal rats)) [%] | Relative Content of absorbed component in plasma ([1]; WCM + IPE group) [%] | Relative Content of absorbed component in plasma ([1]; WHM + IPE group) [%] | AUC(0-t) [2, 5] [ng·h/mL] | Cmax [2, 5] [ng/mL] | half-life [2, 5] [h] | MRT last [2, 5] [h] | Tmax [2, 6] [h] | AUC(0-t) [2, 7] [ng·h/mL] | Cmax [2, 7] [ng/mL] | half-life [2, 7] [h] | MRT last [2, 7] [h] | AUC(0-t) [2, 9] [ng·h/mL] | Cmax [2, 9] [ng/mL] | half-life [2, 9] [h] | MRT last [2, 9] [h] | Tmax [2, 10] [h] | SMILES | other results
1.57 | 2.45 | 2.02 | – | – | – | – | – | – | – | – | – | – | – | – | – | – | COC(=O)/C=C/c1ccc(O)c(O)c1 [Methyl caffeate acid] | –
38.2 | 29.65 | 34.04 | – | – | – | – | – | – | – | – | – | – | – | – | – | – | O=C(O)c1ccc(O)cc1 [p-Hydroxybenzoic acid] | –
– | 1.77 | – | – | – | – | – | – | – | – | – | – | – | – | – | – | – | O=c1ccc2ccccc2o1 [Coumarin] | –
0.39 | 0.5 | 0.58 | – | – | – | – | – | – | – | – | – | – | – | – | – | – | O=c1ccc2cc(O)c(O)cc2o1 [Esculetine] | LTB4 levels (LTB4): decreasing LTB4 levels
17.23 | 20.09 | 17.71 | 60.6 ± 27.3 | 35.8 ± 10.9 | 1.51 ± 0.51 | 1.3 ± 0.28 | 0.45 ± 0.1 | 34.9 ± 22.6 | 26.1 ± 11.6 | 1.02 ± 0.46 | 1.05 ± 0.35 | 104 ± 41.2 | 38.8 ± 16.2 | 1.31 ± 0.32 | 2.27 ± 0.42 | 0.7 ± 0.27 | COc1cc(/C=C/C(=O)O)ccc1O [Ferulic acid] | Tmax ([2]; WCM + IPE group): 0.33 ± 0.12 h; JAK/STAT pathway-mediated RA (JAK/STAT pathway): inhibits JAK/STAT pathway-mediated RA
5.83 | 4.71 | 5.56 | – | – | – | – | – | – | – | – | – | – | – | – | – | – | COc1cc2ccc(=O)oc2cc1O [Scopoletin] | NF-κB signaling in fibroblast-like synoviocytes [4]: block NF-κB signaling
33.04 | 30.2 | 34.24 | 2080 ± 349 | 703 ± 190 | 4.51 ± 3.03 | 4.18 ± 1.82 | 0.85 ± 0.22 | 1130 ± 163 | 342 ± 123 | 2.82 ± 1.07 | 3.32 ± 0.35 | 2300 ± 410 | 709 ± 194 | 3.82 ± 2.55 | 4.53 ± 1.34 | 0.93 ± 0.12 | O=C(O)/C=C/c1ccc(O)c(O)c1 [Caffeic acid] | Tmax [2, 8]: 0.62 ± 0.14 h; IL-6 and TNF-α, inflammatory response in RA-FLS (RA-FLS): inhibits IL-6 and TNF-α
2.7 | 7.8 | 5 | – | – | – | – | – | – | – | – | – | – | – | – | – | – | COc1cc2oc(=O)ccc2cc1O [Isoscopoletin] | –

SMILES | Relative Content of absorbed component in plasma ([1]; Con + IPE group (normal rats)) [%] | Relative Content of absorbed component in plasma ([1]; WCM + IPE group) [%] | Relative Content of absorbed component in plasma ([1]; WHM + IPE group) [%] | AUC(0-t) [2, 5] [ng·h/mL] | Cmax [2, 5] [ng/mL] | half-life [2, 5] [h] | MRT last [2, 5] [h] | Tmax [2, 6] [h] | AUC(0-t) [2, 7] [ng·h/mL] | Cmax [2, 7] [ng/mL] | half-life [2, 7] [h] | MRT last [2, 7] [h] | AUC(0-t) [2, 9] [ng·h/mL] | Cmax [2, 9] [ng/mL] | half-life [2, 9] [h] | MRT last [2, 9] [h] | Tmax [2, 10] [h] | other results
O=C(O)c1ccc(O)c(O)c1 [Protocatechuic acid] | 1.04 | 1.14 | 0.84 | 504 ± 177 | 269 ± 90.2 | 1.93 ± 1.01 | 1.9 ± 0.42 | 0.66 ± 0.25 | 194 ± 100 | 121 ± 77.4 | 1.46 ± 0.32 | 1.59 ± 0.38 | 307 ± 98.3 | 145 ± 53.2 | 1.25 ± 0.36 | 1.83 ± 0.24 | 0.62 ± 0.14 | Tmax [2, 8]: 0.41 ± 0.12 h; secretion of MMP-3, MMP-13, TNF-α, IL-1β, and IL-6 [3]: inhibits the secretion
O=Cc1ccc(O)c(O)c1 [Protocatechuic aldehyde] | – | 1.68 | – | – | – | – | – | – | – | – | – | – | – | – | – | – | – | –
